Laboratory results taken from publication PMC10584170, “Machine learning-based phenotypic imaging to characterise the targetable biology of Plasmodium falciparum male gametocytes for the development of transmission-blocking antimalarials” (PLOS Pathogens, 2023).
Where two headings read alike, the source gives them in different places.

Experiments:
[1] = test system: P. falciparum female gametocytes; test: P. falciparum Dual Gamete Formation Assay (PfDGFA), female readout (Pfs25-positive female gametes); assay type: cell-based, Plasmodium falciparum NF54; details: for Selectivity ratio F: HepG2 Tox50 versus female IC50; for inhibition at 2 µM / Average inhibition female (%) / % inhibition female (individual replicates) R1 / % inhibition female (individual replicates) R3 / % inhibition female (individual replicates) R4: 24h preincubation with gametocytes; for IC50: PfDGFA, 24 h incubation with gametocytes before induction, female gamete readout, read-out: Female IC50; for HitlevelF: number of replicates with >50% inhibition in the female readout
Procedure, shortened: (§1)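 Read-outs are automated image counts of exflagellation centres (brightfield, 10 frames over 1 s) and Pfs25-positive female gametes (Cy3 fluorescence).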

[2] = test system: P. falciparum male gametocytes; test: P. falciparum Dual Gamete Formation Assay (PfDGFA), male readout (exflagellation); assay type: cell-based, Plasmodium falciparum NF54; details: for Selectivity Ratio M: HepG2 Tox50 versus male IC50; for inhibition at 2 µM / Average inhibition male (%) / % inhibition male (individual replicates) R1 / % inhibition male (individual replicates) R3 / % inhibition male (individual replicates) R4: 24h preincubation with gametocytes; for IC50: PfDGFA, 24 h incubation with gametocytes before induction, exflagellation readout, read-out: Male IC50; for HitlevelM: number of replicates with >50% inhibition in the male readout
Procedure, shortened: as §1

HepG2 cells = test: HepG2 cytotoxicity counter-screen; details: cytotoxic activity against HepG2 cells
[3] = Plasmodium falciparum, 2µM, average of replicates, read-out: Average inhibition female (%)
[4] = Plasmodium falciparum, 2µM, replicate R1, read-out: % inhibition female (individual replicates) R1
[5] = Plasmodium falciparum, 2µM, replicate R2, read-out: % inhibition female (individual replicates) R2
[6] = Plasmodium falciparum, 2µM, replicate R3, read-out: % inhibition female (individual replicates) R3
[7] = Plasmodium falciparum, 2µM, replicate R4, read-out: % inhibition female (individual replicates) R4
[8] = Plasmodium falciparum, 2µM, average of replicates, read-out: Average inhibition male (%)
[9] = Plasmodium falciparum, 2µM, replicate R1, read-out: % inhibition male (individual replicates) R1
[10] = Plasmodium falciparum, 2µM, replicate R2, read-out: % inhibition male (individual replicates) R2
[11] = Plasmodium falciparum, 2µM, replicate R3, read-out: % inhibition male (individual replicates) R3
[12] = Plasmodium falciparum, 2µM, replicate R4, read-out: % inhibition male (individual replicates) R4
[13] = PfDGFA at 2µM, average of replicates

SMILES | Selectivity ratio F [1] | IC50 ([1]; Plasmodium falciparum) [µM] | HitlevelF ([1]; 2µM) | Selectivity Ratio M [2] | IC50 ([2]; Plasmodium falciparum) [µM] | HitlevelM ([2]; 2µM) | Tox50 (HepG2 cells) [µM] | inhibition at 2 µM [1, 3] [%] | inhibition at 2 µM [1, 4] [%] | inhibition at 2 µM [1, 5] [%] | inhibition at 2 µM [1, 6] [%] | inhibition at 2 µM [1, 7] [%] | inhibition at 2 µM [2, 8] [%] | inhibition at 2 µM [2, 9] [%] | inhibition at 2 µM [2, 10] [%] | inhibition at 2 µM [2, 11] [%] | inhibition at 2 µM [2, 12] [%] | Average inhibition female (%) [1, 13] [%] | IC50 [1] [µM] | IC50 [2] [µM] | also measured
COc1cccc(C23NC(=Nc4nc5ccccc5[nH]4)NC2(c2cccc(OC)c2)NC(=Nc2nc4ccccc4[nH]2)N3)c1 (centres unmarked) [TCMDC-139087] | 24.94 | 1.3 | 0 | 17.52 | 1.85 | 4 | 32.37 |  |  |  |  |  |  |  |  |  |  |  |  |  | inhibition at 2 µM ([1]; Plasmodium falciparum, PfDGFA at 2µM, average of replicates, read-out: Average inhibition female (%)): 28.9%; inhibition at 2 µM ([1]; Plasmodium falciparum, PfDGFA at 2µM, replicate R1, read-out: % inhibition female (individual replicates) R1): 18.4%; inhibition at 2 µM ([1]; Plasmodium falciparum, PfDGFA at 2µM, replicate R2, read-out: % inhibition female (individual replicates) R2): 40.4%; inhibition at 2 µM ([1]; Plasmodium falciparum, PfDGFA at 2µM, replicate R3, read-out: % inhibition female (individual replicates) R3): 9.2%; inhibition at 2 µM ([1]; Plasmodium falciparum, PfDGFA at 2µM, replicate R4, read-out: % inhibition female (individual replicates) R4): 47.7%; inhibition at 2 µM ([2]; Plasmodium falciparum, PfDGFA at 2µM, average of replicates, read-out: Average inhibition male (%)): 78.4%; inhibition at 2 µM ([2]; Plasmodium falciparum, PfDGFA at 2µM, replicate R1, read-out: % inhibition male (individual replicates) R1): 83%; inhibition at 2 µM ([2]; Plasmodium falciparum, PfDGFA at 2µM, replicate R2, read-out: % inhibition male (individual replicates) R2): 72.6%; inhibition at 2 µM ([2]; Plasmodium falciparum, PfDGFA at 2µM, replicate R3, read-out: % inhibition male (individual replicates) R3): 79%; inhibition at 2 µM ([2]; Plasmodium falciparum, PfDGFA at 2µM, replicate R4, read-out: % inhibition male (individual replicates) R4): 78.9%
c1ccc(-c2nc(Nc3nc4ccccc4[nH]3)[nH]c2-c2ccccc2)cc1 [TCMDC-139099] | 15.94 | 1.02 |  | 17.05 | 0.95 |  | 16.22 | 58.5 | 38.7 | 75.2 | 46.9 | 73.1 | 97.9 | 97.5 | 98.5 | 96.8 | 98.9 |  |  |  | 
COc1ccc2nc(N=C3NC4(c5ccccc5)NC(=Nc5nc6ccc(OC)cc6[nH]5)NC4(c4ccccc4)N3)[nH]c2c1.O=C(O)C(F)(F)F (centres unmarked) [TCMDC-139632] | 5.74 | 5.84 |  | 29.01 | 1.16 |  | 33.52 | 18.9 | 23.3 | 24.8 | 10.6 | 17.1 | 94.4 | 95.5 | 96.3 | 95.1 | 90.9 |  |  |  | 
Br.c1cc(Nc2nc(-c3ccc(-c4csc(Nc5ccncc5)n4)cc3)cs2)ccn1 [TCMDC-139725] | 15.01 | 0.3 |  | 15.17 | 0.3 |  | 4.53 | 92.1 | 90.8 | 87.3 | 93.4 | 96.9 | 95.5 | 101 | 98.4 | 91.3 | 91.8 |  |  |  | 
CN(C)c1ccnc2ccc(NC(=O)Nc3ccnc4ccccc34)cc12 [TCMDC-139749] | 3.83 | 5.92 |  | 13.31 | 1.7 |  | 22.68 | 29.2 | 32.7 | 28.8 | 22.7 | 32.6 | 96.1 | 97.3 | 94.7 |  | 96.1 |  |  |  | 
CC(Cc1ccc(C(=O)Nc2ccc(CC(C)NCCc3cccc(Cl)c3)cc2)cc1)NCCc1ccc(C(F)(F)F)cc1 (centres unmarked) [TCMDC-139790] | 3.01 |  | 1 | 2.39 |  | 4 | 3.76 |  |  |  |  |  |  |  |  |  |  | 37.4 | 1.25 | 1.58 | % inhibition female (individual replicates) R1 ([1]; PfDGFA at 2µM, replicate R1): 27.8%; % inhibition female (individual replicates) R3 ([1]; PfDGFA at 2µM, replicate R3): 24.4%; % inhibition female (individual replicates) R4 ([1]; PfDGFA at 2µM, replicate R4): 27.0%; Average inhibition male (%) [2, 13]: 83.5%; % inhibition male (individual replicates) R1 ([2]; PfDGFA at 2µM, replicate R1): 92.2%; % inhibition male (individual replicates) R3 ([2]; PfDGFA at 2µM, replicate R3): 51.0%; % inhibition male (individual replicates) R4 ([2]; PfDGFA at 2µM, replicate R4): 92.9%
CC(Cc1ccc(NC(=O)c2ccc(CNCCCCc3ccccc3)cc2)cc1)NCCc1cccc(Cl)c1.Cl (centres unmarked) [TCMDC-139866] | 1.02 |  | 1 | 2.02 |  | 3 | 3.81 |  |  |  |  |  |  |  |  |  |  | 35.2 | 3.73 | 1.88 | % inhibition female (individual replicates) R1 ([1]; PfDGFA at 2µM, replicate R1): 34.1%; % inhibition female (individual replicates) R3 ([1]; PfDGFA at 2µM, replicate R3): 6.7%; % inhibition female (individual replicates) R4 ([1]; PfDGFA at 2µM, replicate R4): 45.1%; Average inhibition male (%) [2, 13]: 80.8%; % inhibition male (individual replicates) R1 ([2]; PfDGFA at 2µM, replicate R1): 85.9%; % inhibition male (individual replicates) R3 ([2]; PfDGFA at 2µM, replicate R3): 43.9%; % inhibition male (individual replicates) R4 ([2]; PfDGFA at 2µM, replicate R4): 97.6%
CC(Cc1ccc(OCCCCOc2ccccc2)cc1)NCCC1CCCN1C (centres unmarked) [TCMDC-140017] | 1.19 |  |  | 2.45 |  |  | 1.62 |  |  |  |  |  |  |  |  |  |  |  | 1.37 | 0.66 | Average inhibition female (%) ([1]; 2µM, average of replicates): 62.2%; % inhibition female (individual replicates) R1 ([1]; 2µM, replicate R1): 37.3%; % inhibition female (individual replicates) R3 ([1]; 2µM, replicate R3): 46.8%; % inhibition female (individual replicates) R4 ([1]; 2µM, replicate R4): 81.6%; Average inhibition male (%) ([2]; 2µM, average of replicates): 99.4%; % inhibition male (individual replicates) R1 ([2]; 2µM, replicate R1): 96.0%; % inhibition male (individual replicates) R3 ([2]; 2µM, replicate R3): 99.2%; % inhibition male (individual replicates) R4 ([2]; 2µM, replicate R4): 102.2%
CN(CCCCN)Cc1ccc(-c2ccc(Cl)cc2)cc1 [TCMDC-140123] | 1.81 |  | 0 | 4.36 |  | 4 | 6.69 |  |  |  |  |  |  |  |  |  |  | 20.6 | 3.7 | 1.53 | % inhibition female (individual replicates) R1 ([1]; PfDGFA at 2µM, replicate R1): 26.7%; % inhibition female (individual replicates) R3 ([1]; PfDGFA at 2µM, replicate R3): 14.8%; % inhibition female (individual replicates) R4 ([1]; PfDGFA at 2µM, replicate R4): 10.1%; Average inhibition male (%) [2, 13]: 72.2%; % inhibition male (individual replicates) R1 ([2]; PfDGFA at 2µM, replicate R1): 73.4%; % inhibition male (individual replicates) R3 ([2]; PfDGFA at 2µM, replicate R3): 55.2%; % inhibition male (individual replicates) R4 ([2]; PfDGFA at 2µM, replicate R4): 83.6%
